Tests used:
[1] = system: human pancreatic (Paca-2) cancer cell line; test: MTT cytotoxicity assay, Paca-2; settings: Homo sapiens; for inhibition at 100 µM: PaCa-2, read-out: % Inhibition Paca-2; for IC50: PaCa-2, read-out: IC50 (Mean ± SEM) Paca-2
Experimental: (§1) After 48 h incubation, the medium was aspirated and then 40 μL MTT salt (2.5 mg/mL) was added for a further 4 h. […] Doxorubicin was used as the positive control and 0.5% DMSO was used as the negative control.

[2] = system: human prostate (PC-3) cancer cell line; test: MTT cytotoxicity assay, PC-3; settings: Homo sapiens; for inhibition at 100 µM: read-out: % Inhibition PC-3; for IC50: read-out: IC50 (Mean ± SEM) PC-3
Experimental: as §1

[3] = system: human melanoma (Mel-501) cancer cell line; test: MTT cytotoxicity assay, Mel-501; settings: Homo sapiens; for inhibition at 100 µM: read-out: % Inhibition Mel-501; for IC50: read-out: IC50 (Mean ± SEM) Mel-501
Experimental: as §1

[4] = system: human melanoma (A-375) cancer cell line; test: MTT cytotoxicity assay, A-375; settings: Homo sapiens; for inhibition at 100 µM: A-375, read-out: % Inhibition A-375; for IC50: A-375, read-out: IC50 (Mean ± SEM) A-375
Experimental: as §1

[5] = system: human colon (Caco-2) cancer cell line; test: MTT cytotoxicity assay, Caco-2; settings: for % Inhibition Caco-2: Caco-2, at 100 µM, MTT, (-) No activity detected; for IC50: read-out: IC50 (Mean ± SEM) Caco-2, Caco-2, MTT, three independent determinations
Experimental: as §1

[6] = biological target: EGFR (Homo sapiens, UniProt P00533); test: In vitro kinase inhibitory assessment, EGFR (Kinase-Glo luminescence); format: biochemical; settings: mean of three values; read-out: IC50 (Mean ± SEM) EGFR
[7] = biological target: CDK-2/cyclin A2 (Homo sapiens, UniProt P24941); test: In vitro kinase inhibitory assessment, CDK-2/cyclin A2 (ELISA); format: biochemical; settings: mean of three values; read-out: IC50 (Mean ± SEM) CDK-2/Cyclin A2
Experimental: Assay of CDK-2/cyclin A2 was achieved through ELISA using an affinity tag labelled capture antibody. Adding the samples and the standard to the wells was carried out after the addition of the antibody mix. After the incubation period, the unrestrained substance was discarded and the wells were washed. The added TMB (3,3′,5,5′-tetramethylbenzidine) substrate was prompted by Horseradish peroxidase (HRP) and blue coloration appeared. This reaction was stopped with the addition of stop solution to complete the change in colour from blue to yellow. The created signals were equivalent to the quantity of bound analyte and Robonik P2000 ELISA reader was used to record the intensity at a certain wavelength (450 nm). The concentrations of the screened compounds were calculated through the plotted curve.

[8] = biological target: VEGFR-2 (Homo sapiens, UniProt P35968); test: biochemical
Experimental: The cells were harvested, and the homogenates were prepared in saline using a tight pestle homogenizer until complete cell disruption. The kit used a double-antibody sandwich enzyme-linked immunosorbent assay (ELISA) to determine the level of human VEGFR-2 in samples. A monoclonal antibody for VEGFR-2 was pre-coated onto 96-well plates. The test samples were added to the wells and a biotinylated detection polyclonal antibody from goat specific for VEGFR-2 was added, subsequently followed by washing with PBS buffer. Avidin–Biotin–Peroxidase complex was added, and the unbound conjugates were washed away with PBS buffer. HRP substrate TMB was used to visualize HRP enzymatic reaction. TMB was catalysed by HRP to produce a blue colour product that changed into yellow after the addition of acidic stop solution. The density of yellow colour is proportional to the human VEGFR-2 amount of the sample captured in the plate. The chroma of colour and the concentration of the human VEGFR-2 of the samples were positively correlated and the optical density was determined at 450 nm. The level of human VEGFR-2 in samples was calculated (pg/mL) as duplicate determinations from the standard curve. The % inhibition was calculated in comparison to control untreated cells.

Sequence of EGFR (P00533 25-1210): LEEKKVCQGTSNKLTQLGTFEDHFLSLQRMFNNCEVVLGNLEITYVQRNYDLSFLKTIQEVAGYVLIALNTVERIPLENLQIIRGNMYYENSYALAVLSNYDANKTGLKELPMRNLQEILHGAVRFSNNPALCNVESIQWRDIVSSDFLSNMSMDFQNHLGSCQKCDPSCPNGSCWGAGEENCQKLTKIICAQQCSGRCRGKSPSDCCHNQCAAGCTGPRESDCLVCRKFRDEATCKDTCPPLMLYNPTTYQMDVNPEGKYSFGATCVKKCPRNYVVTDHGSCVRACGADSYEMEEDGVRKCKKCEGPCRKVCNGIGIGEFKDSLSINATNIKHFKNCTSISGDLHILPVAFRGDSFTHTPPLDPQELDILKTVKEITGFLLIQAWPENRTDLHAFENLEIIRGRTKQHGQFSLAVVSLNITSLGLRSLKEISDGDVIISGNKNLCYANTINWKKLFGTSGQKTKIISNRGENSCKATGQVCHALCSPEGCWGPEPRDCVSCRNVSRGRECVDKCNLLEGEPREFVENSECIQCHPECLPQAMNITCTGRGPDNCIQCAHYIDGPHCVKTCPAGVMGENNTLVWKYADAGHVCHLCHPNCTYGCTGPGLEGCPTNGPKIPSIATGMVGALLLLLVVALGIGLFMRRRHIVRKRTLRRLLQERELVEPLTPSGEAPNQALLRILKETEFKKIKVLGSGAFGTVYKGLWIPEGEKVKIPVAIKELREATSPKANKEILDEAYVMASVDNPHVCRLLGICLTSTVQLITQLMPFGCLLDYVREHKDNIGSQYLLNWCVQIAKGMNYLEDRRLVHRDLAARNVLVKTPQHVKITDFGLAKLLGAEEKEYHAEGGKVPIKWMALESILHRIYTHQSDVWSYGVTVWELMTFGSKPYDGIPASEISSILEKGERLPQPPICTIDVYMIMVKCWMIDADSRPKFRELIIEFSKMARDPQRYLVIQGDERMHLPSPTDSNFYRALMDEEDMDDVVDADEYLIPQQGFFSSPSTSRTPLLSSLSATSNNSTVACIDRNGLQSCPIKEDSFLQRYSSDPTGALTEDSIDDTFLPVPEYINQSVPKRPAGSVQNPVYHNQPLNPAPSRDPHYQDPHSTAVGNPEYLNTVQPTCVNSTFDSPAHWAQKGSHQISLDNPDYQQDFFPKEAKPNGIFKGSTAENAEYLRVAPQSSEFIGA
Sequence of VEGFR-2 (P35968 20-1356): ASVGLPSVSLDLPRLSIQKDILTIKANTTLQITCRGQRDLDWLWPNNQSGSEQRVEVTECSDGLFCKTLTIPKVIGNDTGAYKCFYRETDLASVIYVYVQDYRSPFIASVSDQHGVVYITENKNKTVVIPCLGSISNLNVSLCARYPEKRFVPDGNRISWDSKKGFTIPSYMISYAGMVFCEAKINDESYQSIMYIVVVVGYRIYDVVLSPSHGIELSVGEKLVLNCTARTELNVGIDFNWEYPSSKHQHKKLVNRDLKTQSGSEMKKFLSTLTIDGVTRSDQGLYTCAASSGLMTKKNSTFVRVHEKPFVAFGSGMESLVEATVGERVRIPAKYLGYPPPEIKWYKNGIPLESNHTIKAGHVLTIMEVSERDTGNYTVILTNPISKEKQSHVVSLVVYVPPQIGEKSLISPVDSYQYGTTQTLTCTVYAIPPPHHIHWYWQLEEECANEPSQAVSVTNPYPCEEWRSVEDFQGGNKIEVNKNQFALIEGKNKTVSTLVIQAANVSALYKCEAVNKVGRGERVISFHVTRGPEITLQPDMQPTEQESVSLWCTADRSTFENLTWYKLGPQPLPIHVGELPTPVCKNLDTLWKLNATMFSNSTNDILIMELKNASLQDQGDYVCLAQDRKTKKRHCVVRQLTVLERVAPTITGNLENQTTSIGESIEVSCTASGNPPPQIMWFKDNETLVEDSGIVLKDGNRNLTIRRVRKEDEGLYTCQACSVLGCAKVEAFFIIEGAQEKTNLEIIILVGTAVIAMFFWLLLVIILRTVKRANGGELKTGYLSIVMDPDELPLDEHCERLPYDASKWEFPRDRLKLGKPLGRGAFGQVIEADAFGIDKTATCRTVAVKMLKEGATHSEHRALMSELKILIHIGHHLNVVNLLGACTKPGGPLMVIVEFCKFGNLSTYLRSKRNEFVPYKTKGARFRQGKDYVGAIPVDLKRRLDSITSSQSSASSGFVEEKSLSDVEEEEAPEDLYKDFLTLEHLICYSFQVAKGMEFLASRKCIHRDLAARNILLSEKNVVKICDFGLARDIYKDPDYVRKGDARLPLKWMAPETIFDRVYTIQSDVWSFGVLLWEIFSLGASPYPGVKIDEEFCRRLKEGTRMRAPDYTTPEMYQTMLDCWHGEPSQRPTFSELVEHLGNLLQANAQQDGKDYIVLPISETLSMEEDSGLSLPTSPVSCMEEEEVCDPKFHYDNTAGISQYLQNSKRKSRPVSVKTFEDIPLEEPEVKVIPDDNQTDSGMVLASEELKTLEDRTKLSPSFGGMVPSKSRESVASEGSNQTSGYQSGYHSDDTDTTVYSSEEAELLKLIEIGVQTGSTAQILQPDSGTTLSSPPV

| SMILES | melting point [°C] | inhibition at 100 µM [1] [%] | inhibition at 100 µM [2] [%] | inhibition at 100 µM [3] [%] | inhibition at 100 µM [4] [%] | IC50 [1] [µM] | % Inhibition Caco-2 [5] [%] | IC50 [5] [µM] | IC50 [6] [µM] | IC50 [2] [µM] | IC50 [7] [µM] | IC50 [3] [µM] | IC50 [4] [µM] | IC50 [8] [µM] |
| --- | --- | --- | --- | --- | --- | --- | --- | --- | --- | --- | --- | --- | --- | --- |
| O=c1cc(-c2ccccc2)c2ccc(OCc3nnn([C@@H]4O[C@H](CO)[C@H](O)[C@H](O)[C@H]4O)n3)cc2o1 [Compound 7] | 204 to 205 | 21.3 | 0 | 22.3 | 13.8 | – | – | – | – | – | – | – | – | – |
| O=c1cc(-c2ccccc2)c2ccc(OCc3nn[nH]n3)cc2o1 [Compound 3, 7-((2H-Tetrazol-5-yl)methoxy)-4-phenyl-2H-chromen-2-one] | 219 to 221 | 55.6 | 12.2 | 48.4 | 55.3 | – | – | – | – | – | – | – | – | – |
| CC(=O)OC1COC(n2cc(COc3ccc4c(-c5ccccc5)cc(=O)oc4c3)nn2)C(OC(C)=O)C1OC(C)=O [Compound 15, 4-Phenyl-7-((1-(2,3,4-tria-O-acetyl-β-D-xylopyranosyl)-1H-1,2,3-triazol-4-yl)methoxy)-2H-chromen-2-one] | 89 to 90 | 95 | 98.2 | 97.8 | 94.7 | 16.9 ± 0.9 | 99.3 | 20.4 ± 0.6 | 53 ± 0.15 | 12.5 ± 0.9 | 0.48 ± 0.15 | 4.1 ± 0.3 | 9.9 ± 1 | 40 ± 0.05 |
| O=c1cc(-c2ccccc2)c2ccc(OCc3nnn(CCOCCO)n3)cc2o1 [Compound 9, 7-((2-(2-(2-Hydroxyethoxy)ethyl)-2H-tetrazol-5-yl)methoxy)-4-phenyl-2H-chromen-2-one] | – | 94.7 | 95.9 | 97.7 | 84.1 | 28.3 ± 0.7 | 99.5 | 38.1 ± 0.4 | – | 47.4 ± 1.4 | – | 30.2 ± 0.5 | 15 ± 0.04 | – |
| O=c1cc(-c2ccccc2)c2ccc(OCc3cn([C@@H]4OC[C@@H](O)[C@H](O)[C@H]4O)nn3)cc2o1 [Compound 18, 4-Phenyl-7-((1-(β-D-Xylopyranosyl)-1H-1,2,3-triazol-4-yl)methoxy)-2H-chromen-2-one] | 177 to 178 | 96.9 | 91.4 | 98.5 | 97.9 | 36.4 ± 1.2 | 99.4 | 61.9 ± 1.3 | – | 37.6 ± 0.4 | – | 10 ± 0.1 | 8.5 ± 0.3 | – |
| C#CCOc1ccc2c(-c3ccccc3)cc(=O)oc2c1 [Compound 11, 4-Phenyl-7-(prop-2-yn-1-yloxy)-2H-chromen-2-one] | 116 to 117 | 58.1 | 16.7 | 44 | 9.1 | – | 0 | – | – | – | – | – | – | – |
| O=c1cc(-c2ccccc2)c2ccc(O)cc2o1 [Compound 1, 7-hydroxy-4-phenyl-2H-chromen-2-one] | – | 79 | 55.7 | 96.2 | 95 | 62.3 ± 1.3 | 40.5 | – | – | – | – | 28.6 ± 0.4 | 12.9 ± 0.6 | – |
| O=c1cc(-c2ccccc2)c2ccc(OCc3nnn([C@@H]4OC[C@@H](O)[C@H](O)[C@H]4O)n3)cc2o1 [Compound 8] | 195 to 196 | 96.5 | 98.1 | 98.1 | 95 | 23.8 ± 0.9 | 97 | 52.5 ± 1.3 | – | 48.2 ± 0.7 | – | 19.4 ± 0.4 | 13.9 ± 0.2 | – |
| COc1cccc2c1C(=O)c1c(O)c3c(c(O)c1C2=O)C[C@@](O)(C(=O)CO)C[C@@H]3O[C@H]1C[C@H](N)[C@H](O)[C@H](C)O1 [Doxorubicin, reference compound] | – | – | – | – | – | 19.4 ± 0.5 | – | 3.7 ± 0.2 | – | 6.8 ± 0.2 | – | 3.5 ± 0.3 | 4.5 ± 0.07 | – |
| O=c1cc(-c2ccccc2)c2ccc(OCc3cn([C@@H]4O[C@H](CO)[C@@H](O)[C@H](O)[C@H]4O)nn3)cc2o1 [Compound 16, 4-Phenyl-7-((1-(β-D-glucopyranosyl)-1H-1,2,3-triazol-4-yl)methoxy)-2H-chromen-2-one] | 180 to 182 | 96.9 | 95.8 | 99.1 | 97.5 | 23.8 ± 1.1 | 99 | 48.1 ± 0.4 | – | 36.4 ± 1.1 | – | 26.5 ± 0.7 | 16.3 ± 0.6 | – |
| CC(=O)OC[C@H]1O[C@@H](n2cc(COc3ccc4c(-c5ccccc5)cc(=O)oc4c3)nn2)[C@H](OC(C)=O)[C@@H](OC(C)=O)[C@H]1OC(C)=O [Compound 14, 4-Phenyl-7-((1-(2,3,4,6-tetra-O-acetyl-β-D-galactopyranosyl)-1H-1,2,3-triazol-4-yl)methoxy)-2H-chromen-2-one] | 93 to 94 | 94.9 | 80.2 | 77.1 | 96.8 | 33.4 ± 0.6 | 89.8 | 70.2 ± 1.4 | – | 51.3 ± 1.6 | – | 65.1 ± 1.2 | 12.4 ± 0.3 | – |
| CC(=O)OC[C@H]1O[C@@H](n2nnc(COc3ccc4c(-c5ccccc5)cc(=O)oc4c3)n2)[C@H](OC(C)=O)[C@@H](OC(C)=O)[C@H]1OC(C)=O [Compound 5, 4-Phenyl-7-((1-(2,3,4,6-tetra-O-actyl-β-D-galactopyranosyl)-2H-tetrazol-5-yl)methoxy)-2H-chromen-2-one] | 122 to 124 | 56.9 | 15 | 68.4 | 23.1 | – | – | – | – | – | – | 72.1 ± 1.2 | – | – |
| CC(=O)OC[C@H]1O[C@@H](n2cc(COc3ccc4c(-c5ccccc5)cc(=O)oc4c3)nn2)[C@H](OC(C)=O)[C@@H](OC(C)=O)[C@@H]1OC(C)=O [Compound 13, 4-Phenyl-7-((1-(2,3,4,6-Tetra-O-acetyl-β-D-glucopyranosyl)-1H-1,2,3-triazol-4-yl)methoxy)-2H-chromen-2-one] | 131 to 132 | 97.6 | 95.6 | 98.5 | 96.9 | 14.6 ± 1.1 | 99.6 | 40.5 ± 0.9 | 66 ± 0.01 | 22.3 ± 0.6 | 0.5 ± 0.11 | 16.7 ± 0.3 | 14.5 ± 0.2 | 45 ± 0.1 |
| N#CCOc1ccc2c(-c3ccccc3)cc(=O)oc2c1 [Compound 2, 2-((2-Oxo-4-phenyl-2H-chromen-7-yl)oxy)acetonitrile] | 183 to 184 | 44.1 | 10.5 | 35.6 | 6.5 | – | – | – | – | – | – | – | – | – |
| O=c1cc(-c2ccccc2)c2ccc(OCc3cn([C@@H]4O[C@H](CO)[C@H](O)[C@H](O)[C@H]4O)nn3)cc2o1 [Compound 17, 4-Phenyl-7-((1-(β-D-galactopyranosyl)-1H-1,2,3-triazol-4-yl)methoxy)-2H-chromen-2-one] | 185 to 186 | 96.3 | 97.3 | 98.6 | 98.5 | 33.3 ± 0.5 | 95.6 | 48.1 ± 0.8 | – | 41 ± 2.1 | – | 35.8 ± 0.7 | 39.6 ± 0.5 | – |
